Laboratory results reported in BindingDB's records for doi:10.1016/j.bmcl.2004.10.091 (Martin-Luther-University Halle-Wittenberg, 2005).

target: Cyclin-dependent kinase 1/G2/mitotic-specific cyclin-B (Marthasterias glacialis, UniProt P15206+Q9DGD3); test: Kinase Inhibition Assay; conditions: pH 7.2; 30 °C
Description: (§1) Kinase activities were assayed in buffers containing substrate, enzyme, and inhibitor at 30 °C in the presence of 15 uM ATP/ [gamma-32P] ATP. 32P incorporation was measured with a scintillation counter. The IC50 is the inhibitor concentration, which inhibits 50% of kinase activity that catalyzes the transfer of the terminal phosphate from 32P labeled ATP to the substrate.

Sequence of Cyclin-dependent kinase 1/G2/mitotic-specific cyclin-B (Q9DGD3 whole entry): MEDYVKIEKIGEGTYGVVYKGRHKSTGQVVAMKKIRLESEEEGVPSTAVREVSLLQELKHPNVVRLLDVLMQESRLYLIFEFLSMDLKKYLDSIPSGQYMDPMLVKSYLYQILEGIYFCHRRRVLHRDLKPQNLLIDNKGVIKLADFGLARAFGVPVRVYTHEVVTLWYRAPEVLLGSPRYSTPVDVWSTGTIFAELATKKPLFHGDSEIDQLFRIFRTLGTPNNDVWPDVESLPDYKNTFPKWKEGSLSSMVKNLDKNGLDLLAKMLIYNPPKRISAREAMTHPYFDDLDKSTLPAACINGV
Sequence of Cyclin-dependent kinase 1/G2/mitotic-specific cyclin-B (P15206 whole entry): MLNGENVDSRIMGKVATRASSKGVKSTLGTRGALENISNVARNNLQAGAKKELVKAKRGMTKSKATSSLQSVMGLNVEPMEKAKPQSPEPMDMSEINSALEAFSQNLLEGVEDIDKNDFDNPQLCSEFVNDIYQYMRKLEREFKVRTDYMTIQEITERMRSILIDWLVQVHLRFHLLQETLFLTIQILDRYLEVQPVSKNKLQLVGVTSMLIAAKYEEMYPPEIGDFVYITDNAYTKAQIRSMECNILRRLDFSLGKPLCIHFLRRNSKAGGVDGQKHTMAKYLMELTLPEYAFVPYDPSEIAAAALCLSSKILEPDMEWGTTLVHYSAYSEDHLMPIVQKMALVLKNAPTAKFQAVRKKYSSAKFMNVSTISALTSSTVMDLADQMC

SMILES | IC50 [µM]
Oc1ccc2oc3ncc(Cl)c(-c4ccccc4)c3c2c1 [4-chloro-3-phenyl-8-oxa-6-azatricyclo[7.4.0.0^{2,7}]trideca-1(13),2(7),3,5,9,11-hexaen-12-ol] | > 100
CCOc1cnc2oc3ccc(O)cc3c2c1-c1ccccc1 [4-ethoxy-3-phenyl-8-oxa-6-azatricyclo[7.4.0.0^{2,7}]trideca-1(13),2(7),3,5,9,11-hexaen-12-ol] | > 100
Cc1cnc2oc3ccc(O)cc3c2c1-c1ccccc1 [4-methyl-3-phenyl-8-oxa-6-azatricyclo[7.4.0.0^{2,7}]trideca-1(13),2(7),3,5,9,11-hexaen-12-ol] | > 100

target: Glycogen synthase kinase-3 beta (Rattus norvegicus, UniProt P18266); test: Kinase Inhibition Assay; conditions: 30 °C
Sequence (P18266 whole entry): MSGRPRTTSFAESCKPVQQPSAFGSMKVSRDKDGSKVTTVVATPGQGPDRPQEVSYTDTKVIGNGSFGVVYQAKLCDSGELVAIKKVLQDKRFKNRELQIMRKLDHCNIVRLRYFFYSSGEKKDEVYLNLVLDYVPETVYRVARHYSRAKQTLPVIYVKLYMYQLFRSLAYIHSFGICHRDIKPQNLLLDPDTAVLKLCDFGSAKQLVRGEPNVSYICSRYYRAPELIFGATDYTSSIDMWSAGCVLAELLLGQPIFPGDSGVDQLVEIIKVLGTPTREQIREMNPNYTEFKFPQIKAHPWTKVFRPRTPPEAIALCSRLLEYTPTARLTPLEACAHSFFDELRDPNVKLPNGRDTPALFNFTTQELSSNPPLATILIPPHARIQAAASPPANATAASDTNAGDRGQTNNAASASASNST
Description: as §1

IC50 [µM] | SMILES
> 50 | CC(C)c1cnn2c(Nc3ccc(S(=O)(=O)N(C)C)cc3)cc(NC3CCCC(N)C3)nc12 (centres undefined) [4-({5-[(3-aminocyclohexyl)amino]-3-(propan-2-yl)pyrazolo[1,5-a]pyrimidin-7-yl}amino)-N,N-dimethylbenzene-1-sulfonamide]
40 | CC(C)c1cnn2c(Nc3ccc(S(=O)(=O)N(C)C)cc3)cc(N[C@H]3CC[C@H](N)CC3)nc12 [4-({5-[(4-aminocyclohexyl)amino]-3-(propan-2-yl)pyrazolo[1,5-a]pyrimidin-7-yl}amino)-N,N-dimethylbenzene-1-sulfonamide]
8.7 | CN(C)S(=O)(=O)c1ccc(Nc2cc(N[C@H]3CC[C@H](N)CC3)nc3c(Br)cnn23)cc1Cl [4-({5-[(4-aminocyclohexyl)amino]-3-bromopyrazolo[1,5-a]pyrimidin-7-yl}amino)-2-chloro-N,N-dimethylbenzene-1-sulfonamide]
3.4 | CN(C)S(=O)(=O)c1ccc(Nc2cc(N[C@H]3CC[C@H](N)CC3)nc3c(Br)cnn23)cc1 [4-({5-[(4-aminocyclohexyl)amino]-3-bromopyrazolo[1,5-a]pyrimidin-7-yl}amino)-N,N-dimethylbenzene-1-sulfonamide]
5.1 | CN(C)S(=O)(=O)c1ccc(Nc2cc(N[C@H]3CC[C@H](N)CC3)nc3c(Cl)cnn23)cc1 [4-({5-[(4-aminocyclohexyl)amino]-3-chloropyrazolo[1,5-a]pyrimidin-7-yl}amino)-N,N-dimethylbenzene-1-sulfonamide]
0.46 | CN(C)S(=O)(=O)c1ccc(Nc2cc(N[C@H]3CC[C@H](N)CC3)nc3c(C#N)cnn23)cc1 [4-({5-[(4-aminocyclohexyl)amino]-3-cyanopyrazolo[1,5-a]pyrimidin-7-yl}amino)-N,N-dimethylbenzene-1-sulfonamide]
22 | CN(C)S(=O)(=O)c1ccc(Nc2cc(N[C@H]3CC[C@H](N)CC3)nc3c(C4CCCC4)cnn23)cc1 [4-({5-[(4-aminocyclohexyl)amino]-3-cyclopentylpyrazolo[1,5-a]pyrimidin-7-yl}amino)-N,N-dimethylbenzene-1-sulfonamide]
28 | CC(C)c1cnn2c(Nc3ccc(S(=O)(=O)N(C)C)cc3)cc(O[C@H]3CC[C@H](N)CC3)nc12 [4-({5-[(4-aminocyclohexyl)oxy]-3-(propan-2-yl)pyrazolo[1,5-a]pyrimidin-7-yl}amino)-N,N-dimethylbenzene-1-sulfonamide]
> 50 | CCN(CC)[C@H]1CC[C@H](Nc2cc(Nc3ccc(S(=O)(=O)N(C)C)cc3)n3ncc(C(C)C)c3n2)CC1 [4-[(5-{[4-(diethylamino)cyclohexyl]amino}-3-(propan-2-yl)pyrazolo[1,5-a]pyrimidin-7-yl)amino]-N,N-dimethylbenzene-1-sulfonamide]
> 50 | CCN[C@H]1CC[C@H](Nc2cc(Nc3ccc(S(=O)(=O)N(C)C)cc3)n3ncc(C(C)C)c3n2)CC1 [4-[(5-{[4-(ethylamino)cyclohexyl]amino}-3-(propan-2-yl)pyrazolo[1,5-a]pyrimidin-7-yl)amino]-N,N-dimethylbenzene-1-sulfonamide]
0.96 | Brc1cccc(-c2cc(NCc3ccncc3)n3nccc3n2)c1 [5-(3-bromophenyl)-N-(pyridin-4-ylmethyl)pyrazolo[1,5-a]pyrimidin-7-amine]
5.3 | N[C@H]1CC[C@H](Nc2cc(Nc3ccc(S(=O)(=O)c4ccccc4)cc3)n3ncc(Br)c3n2)CC1 [5-N-(4-aminocyclohexyl)-7-N-[4-(benzenesulfonyl)phenyl]-3-bromopyrazolo[1,5-a]pyrimidine-5,7-diamine]
11 | CC(C)c1cnn2c(Nc3ccc(S(C)(=O)=O)cc3)cc(Cl)nc12 [5-chloro-N-(4-methanesulfonylphenyl)-3-(propan-2-yl)pyrazolo[1,5-a]pyrimidin-7-amine]
3.1 | CS(=O)(=O)c1ccc(Nc2cc(Cl)nc3ccnn23)cc1 [5-chloro-N-(4-methanesulfonylphenyl)pyrazolo[1,5-a]pyrimidin-7-amine]
50 | CC(C)COc1cc(Nc2ccc(S(=O)(=O)N(C)C)cc2)n2ncc(C(C)C)c2n1 [N,N-dimethyl-4-{[5-(2-methylpropoxy)-3-(propan-2-yl)pyrazolo[1,5-a]pyrimidin-7-yl]amino}benzene-1-sulfonamide]
12 | CC(C)COc1cc(Nc2ccc(S(C)(=O)=O)cc2)n2ncc(C(C)C)c2n1 [N-(4-methanesulfonylphenyl)-5-(2-methylpropoxy)-3-(propan-2-yl)pyrazolo[1,5-a]pyrimidin-7-amine]
